{"source": "patent US10100011B2", "about": "“Pentadienoyl piperidine derivative and use thereof” (Industry-Academic Cooperation Foundation, Yonsei University, priority 2014, dated 2018)", "key": {"C57BL/6J mice [1]": {"tested_on": "C57BL/6J mice", "assay": "Plasma lipid concentrations in mice fed high-fat diet", "format": "in vivo, mouse", "details": "about 0.05% compound in high-fat diet, 10 weeks", "procedure": "(§1) An obesity induction diet used in this experiment was a high-fat diet (HFD: 40% fat calories, 17 g of lard+3% corn oil/100 g diet), and the compositions of diets including the LJ-2501, LJ-2488, LJ-2495, LJ-2496 compounds were identical to that of HFD, except that each of the compounds was included in an amount of about 0.05% (Table 2). As a control drug, an anti-obesity drug, sibutramine (Sibut), was added in an amount of about 0.01% to the high-fat diet and a normal diet group (Chow) was fed with commercial rodent chow.\n(§2) 5-week old 40 male C57BL/6J mice (Orient Bio., Korea) were fed with hard feed and accommodated in a laboratory environment for one week. Subsequently, in accordance with a randomized block method, the mice were randomly grouped into a normal diet group, a high-fat diet control group, two experimental substance groups, and […] and raised for a total of 10 weeks (n=8/group). Diets were supplied with water between 10 am and 11 am every day. An intake amount was measured every day and the body weights of the mice were measured every week. To prevent temporal weight change due to feed intake, feedboxes were removed and, after two hours, the body weights were measured. The experimental animals were fasted for 12 hours or more and then anesthetized with diethyl ether, followed by collecting blood, liver, and visceral adipose tissues (epididymal fat, perirenal fat, mesenteric fat, and retroperitoneal fat). The collected samples were washed with 0.1 M phosphate buffered saline (pH 7.4) and then weighed. Blood samples collected from abdominal aortas were centrifuged at 1000×g for 15 minutes, thereby separating plasma.\nUsing the aforementioned experimental animals raised for 10 weeks, the concentrations of a total of cholesterol, neutral fat, and glucose in plasma and lipid components in liver tissue were measured as follows. The concentrations of a total of cholesterol, neutral fat, and free fatty acid in plasma were respectively measured twice using a commercial measurement kit (Bio Clinical System)."}, "C57BL/6J mice [2]": {"tested_on": "C57BL/6J mice", "assay": "Liver weight, liver tissue lipid concentrations and hepatic function indicators in blood of mice fed high-fat diet", "format": "in vivo, mouse", "details": "about 0.05% compound in high-fat diet, 10 weeks", "procedure": "as §1, §2\nLipid components were extracted from liver tissue in accordance with the method by Folch, et al. (Folch J, Lees M, Sloane Stanley G H. A simple method for the isolation and purification of total lipids from animal tissues. J Biol Chem. 1957; 226:497-509). In particular, 1 mL of distilled water was added to 0.25 g of a liver tissue sample and then homogenized by means of a Polytron homogenizer (IKA-WERKE GmbH & Co., Ultra-Turrax, Staufen, Germany). To the homogenized solution, 5 mL of a solution including chloroform and methanol (mixed in a ratio of 2:1, v/v) was added, followed by uniformly mixing. Subsequently, centrifugation was carried out at 1000×g for 10 minutes and a lower solution was separated. To a formed supernatant, 2 mL of a mixture including chloroform and methanol (mixed in a ratio of 2:1, v/v) was added, followed by repeating the same procedure. As a result, lipid components were completely isolated from the liver samples. To an obtained lower solution, 3 mL of a mixture including chloroform, methanol, and 0.05% CaCl2 (mixed in a ratio of 3:48:47, v/v/v) was added, followed by mixing for one minute. Subsequently, centrifugation was carried out at 1000×g for 10 minutes. A final lower solution was collected and completely dried with a nitrogen gas. Subsequently, the dried lipid was dissolved in 1 mL of methanol and used for lipid component analysis. The concentrations of neutral fat and cholesterol in the lipid extracts extracted from the liver tissue were measured using the same commercial lipid analysis kit (Bio Clinical System) as that used in the plasma analysis.\nGlutamate oxaloacetate transferase (GOT) and glutamate pyruvate transferase (GPT) activity in serum during fasting were measured by means of an automatic biochemical analyzer (Express Plus, Chiron Diagnostics Co., USA). A kit for analysis was purchased from Bayer (Tarrytown, N.Y., USA)."}, "3T3L1 cells": {"tested_on": "3T3L1 cells", "assay": "Adipocyte differentiation inhibition in preadipocytes (Oil-red O staining)", "format": "cell-based, mouse", "details": "Mus musculus, 3T3-L1, treated every two days during 14 days differentiation, Oil-red O O.D. 600 nm, read-out: adipocyte differentiation inhibition activity, EC50 value", "procedure": "Preadipocytes, 3T3L1 cells, were aliquoted into a 12-well plate and cultured in a DMEM medium containing 1% penicillin-streptomycin, 1% nonessential amino acid, and 10% fetal bovine serum (FBS) in a 5% CO2 incubator at 37° C. until confluence. The 3T3L1 cells grown to confluence were cultured for two days in a medium containing 0.5 mM isobutyl-methylxanthine, 1 μM dexamethasone (MDI), and 1 μg/ml insulin, thereby being differentiated into adipocytes. Subsequently, the differentiated adipocytes were further cultured for two days in a DMEM medium including 1 μg/ml insulin, thereby being differentiated into mature adipocytes. Subsequently, the differentiated mature adipocytes were further cultured for 10 days while replacing a used DMEM medium with a new DMEM medium every two days. As a result, completely differentiated adipocytes were formed.\n3T3-L1 cells were treated with each of a total of four novel compound types at different concentrations every two days from the first day of cell differentiation induction by addition of DMI. Each of the derivative compounds was dissolved in DMSO and then used. A negative control group including only DMSO was included in this experiment. Cell culture was carried out for 14 days. When differentiation was completed, a medium was removed and lipid droplets contained in differentiated adipocytes were stained. To stain the lipid droplets, cells were washed with phosphate buffered saline (PBS) twice and then fixed with 10% buffered neutral formalin for one hour, followed by washing with PBS once. Subsequently, 1 ml of Oil-red-O dye for staining lipid droplets red was fed into a 12-well plate and lipid droplets were stained for one hour, followed by washing with distilled water twice. To measure the concentration of neutral fat contained in the differentiated 3T3L1 cells, the stained lipid droplets were dissolved in 1 ml of isobutanol, followed by measuring an O.D value at 600 nm."}, "C57BL/6J mice [3]": {"tested_on": "C57BL/6J mice", "assay": "Body weight and visceral fat weight in mice fed high-fat diet", "format": "in vivo, mouse", "details": "about 0.05% compound in high-fat diet, 10 weeks", "procedure": "as §1, §2"}, "C57BL/6J mice [4]": {"tested_on": "C57BL/6J mice", "assay": "Inflammatory cytokine concentrations in blood of mice fed high-fat diet (ELISA)", "format": "in vivo, mouse", "details": "about 0.05% compound in high-fat diet, 10 weeks", "procedure": "as §1, §2\nThe concentrations of TNFα, MCP-1, IL-6, leptin, and insulin in plasma were measured according to an ELISA method using the Mouse Adipokine Magnetic Bead Panel kit (MADKMAG-71K, EMD Millipore Corporation, Mass., USA)."}}, "data": [{"smiles": "CSc1ccc(/C=C/C=C/C(=O)N2CCCCC2)cc1", "note": "[LJ-2501, (2E,4E)-5-(4-(methylthio)phenyl)-1-(piperine-1-yl)penta-2,4-diene-1-one]", "values": [{"measurement": "plasma LDL+VLDL cholesterol concentration, reduction compared to HFD", "setting": "C57BL/6J mice [1]", "value": 27, "unit": "%"}, {"measurement": "plasma free fatty acid concentration, reduction compared to HFD", "setting": "C57BL/6J mice [1]", "value": 69, "unit": "%"}, {"measurement": "plasma neutral fat concentration, reduction compared to HFD", "setting": "C57BL/6J mice [1]", "value": 34, "unit": "%"}, {"measurement": "plasma total cholesterol concentration, reduction compared to HFD", "setting": "C57BL/6J mice [1]", "value": 35, "unit": "%"}, {"measurement": "hepatic function indexes (ALT, AST) in the blood, reduction compared to HFD", "setting": "C57BL/6J mice [2]", "value": "60-65%"}, {"measurement": "liver tissue cholesterol concentration, reduction compared to HFD", "setting": "C57BL/6J mice [2]", "value": 53, "unit": "%"}, {"measurement": "liver tissue free fatty acid concentration, reduction compared to HFD", "setting": "C57BL/6J mice [2]", "value": 77, "unit": "%"}, {"measurement": "liver tissue neutral fat concentration, reduction compared to HFD", "setting": "C57BL/6J mice [2]", "value": 35, "unit": "%"}, {"measurement": "liver weight, reduction compared to high-fat diet control group", "setting": "C57BL/6J mice [2]", "value": 41, "unit": "%"}, {"measurement": "size of the liver compared to HFD group (photograph)", "setting": "C57BL/6J mice [2]", "value": "relatively small"}, {"measurement": "EC50", "setting": "3T3L1 cells", "value": 101, "unit": "µM"}, {"measurement": "cumulative weight gain, reduction compared to high-fat diet control group (HFD)", "setting": "C57BL/6J mice [3]", "value": 60, "unit": "%"}, {"measurement": "diet intake amount compared to HFD control group", "setting": "C57BL/6J mice [3]", "value": "not greatly different"}, {"measurement": "epididymal fat, perirenal fat, mesenteric fat and retroperitoneal fat weights compared to HFD (in words)", "setting": "C57BL/6J mice [3]", "value": "significant reduction"}, {"measurement": "total weight of visceral fats (four fat types), reduction compared to HFD", "setting": "C57BL/6J mice [3]", "value": 72, "unit": "%"}, {"measurement": "visceral fat amount in abdominal section image compared to HFD (naked eye)", "setting": "C57BL/6J mice [3]", "value": "remarkably reduced"}, {"measurement": "blood IL-6 concentration, reduction compared to HFD", "setting": "C57BL/6J mice [4]", "value": 38, "unit": "%"}, {"measurement": "blood MCP-1 concentration, reduction compared to HFD", "setting": "C57BL/6J mice [4]", "value": 22, "unit": "%"}, {"measurement": "blood TNF-α concentration, reduction compared to HFD", "setting": "C57BL/6J mice [4]", "value": 25, "unit": "%"}, {"measurement": "blood leptin concentration, reduction compared to HFD", "setting": "C57BL/6J mice [4]", "value": 25, "unit": "%"}]}]}
